Our source for the IC50 values is patent publication US20250129078A1, “ERBB2 INHIBITORS” (Cogent Biosciences, Inc., priority 2023, published 2025).

The assay addresses EGFR WT (Homo sapiens (Human), UniProt P00533). Put plainly: ErbB enzyme assay (CisBio HTRF-KinEASE-TK), EGFR WT. The following applies: ATP at Km (25 μM), 1 h incubation. The assay is classed as biochemical. In short, it runs like this:
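Tyrosine kinase HTRF, 1 h RT reaction → quench (Sa-XL665/TK-Ab-Cryptate) → 1 h RT → 655/620 ratio.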
In general terms: TR-FRET usually uses a lanthanide donor and a delayed reading to cut background.

Structures can show the parent of a compound that is named as a salt. A value given as a limit tells only on which side of the number the result lay.

Sequence of EGFR WT (P00533 25-1210): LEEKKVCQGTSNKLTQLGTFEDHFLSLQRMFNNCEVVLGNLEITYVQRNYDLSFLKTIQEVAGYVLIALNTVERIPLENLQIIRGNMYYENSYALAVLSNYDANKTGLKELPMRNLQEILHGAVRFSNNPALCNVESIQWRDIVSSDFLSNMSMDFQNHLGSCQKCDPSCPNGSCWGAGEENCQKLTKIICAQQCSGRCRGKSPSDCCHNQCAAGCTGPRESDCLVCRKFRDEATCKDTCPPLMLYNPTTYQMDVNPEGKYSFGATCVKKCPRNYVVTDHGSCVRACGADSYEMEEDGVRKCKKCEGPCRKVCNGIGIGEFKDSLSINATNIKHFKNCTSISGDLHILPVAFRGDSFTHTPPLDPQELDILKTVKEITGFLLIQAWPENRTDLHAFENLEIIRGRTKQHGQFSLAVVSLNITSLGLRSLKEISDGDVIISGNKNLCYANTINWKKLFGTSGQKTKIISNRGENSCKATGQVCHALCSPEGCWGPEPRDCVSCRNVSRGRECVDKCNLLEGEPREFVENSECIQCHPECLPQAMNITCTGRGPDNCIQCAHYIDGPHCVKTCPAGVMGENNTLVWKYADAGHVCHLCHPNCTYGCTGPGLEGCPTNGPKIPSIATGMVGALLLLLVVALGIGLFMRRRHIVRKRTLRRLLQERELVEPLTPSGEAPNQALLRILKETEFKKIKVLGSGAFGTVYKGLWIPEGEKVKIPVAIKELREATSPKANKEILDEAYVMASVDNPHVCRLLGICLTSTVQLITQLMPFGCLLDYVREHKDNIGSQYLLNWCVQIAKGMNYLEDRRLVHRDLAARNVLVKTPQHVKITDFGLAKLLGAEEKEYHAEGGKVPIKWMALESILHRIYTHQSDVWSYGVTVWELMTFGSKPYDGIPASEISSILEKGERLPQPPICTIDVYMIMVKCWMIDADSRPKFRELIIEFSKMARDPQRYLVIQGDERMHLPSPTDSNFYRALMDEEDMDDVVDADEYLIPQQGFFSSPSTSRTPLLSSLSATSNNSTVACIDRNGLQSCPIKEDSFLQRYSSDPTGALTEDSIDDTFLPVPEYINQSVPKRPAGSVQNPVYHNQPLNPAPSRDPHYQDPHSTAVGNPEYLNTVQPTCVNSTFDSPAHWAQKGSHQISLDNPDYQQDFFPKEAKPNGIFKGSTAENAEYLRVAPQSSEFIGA

What is called IC50 is the point on the concentration scale where inhibition reaches its midpoint. A high value points to weaker potency in that assay. Compound `C=CC(=O)N[C@@H]1CCCN(c2ncc3ncnc(Nc4ccc(Oc5cc(F)c6c(c5)nnn6C)c(C)c4F)c3n2)C1` [Compound 178, (R)-N-(1-(8-((2-fluoro-4-((7-fluoro-1-methyl-1H-benzo[d][1,2,3]triazol-5-yl)oxy)-3-methylphenyl)amino)pyrimido[5,4-d]pyrimidin-2-yl)piperidin-3-yl)acrylamide] gave an IC50 of under 50 nM.
As for `C=CC(=O)N1CCN(c2ncc3ncnc(Nc4ccc(Oc5ccc6c(c5)nnn6C(F)(F)F)c(C)c4)c3n2)C[C@H]1C` [Compound 195, (R)-1-(2-methyl-4-(8-((3-methyl-4-((1-(trifluoromethyl)-1H-benzo[d][1,2,3]triazol-5-yl)oxy)phenyl)amino)pyrimido[5,4-d]pyrimidin-2-yl)piperazin-1-yl)prop-2-en-1-one], the IC50 fell in the range of 100 to 500 nM.
In turn, `C=CC(=O)N1CC(Oc2ncc3ncnc(Nc4ccc(Oc5cc(F)c6c(c5)ncn6C)c(C)c4)c3n2)C1` [Compound 388, 1-(3-((8-((4-((7-fluoro-1-methyl-1H-benzo[d]imidazol-5-yl)oxy)-3-methylphenyl)amino)pyrimido[5,4-d]pyrimidin-2-yl)oxy)azetidin-1-yl)prop-2-en-1-one] came in with an IC50 of under 50 nM.
`C=CC(=O)N[C@@H]1[C@@H]2C[C@H]1CN(c1ncc3ncnc(Nc4ccc(Oc5ccc6c(c5)nnn6C)c(C)c4)c3n1)C2` [Compound 208, N-((1R,5S,6s)-3-(8-((3-methyl-4-((1-methyl-1H-benzo[d][1,2,3]triazol-5-yl)oxy)phenyl)amino)pyrimido[5,4-d]pyrimidin-2-yl)-3-azabicyclo[3.1.1]heptan-6-yl)acrylamide] gave an IC50 of at least 1000 nM.
`C=C(F)C(=O)N1C2C=C(c3ccc4ncnc(Nc5ccc(Oc6ccc7c(c6)nnn7C)c(C)c5)c4n3)CC1COC2` (stereo not drawn) [Compound 410, 2-fluoro-1-(7-(4-((3-methyl-4-((1-methyl-1H-benzo[d][1,2,3]triazol-5-yl)oxy)phenyl)amino)pyrido[3,2-d]pyrimidin-6-yl)-3-oxa-9-azabicyclo[3.3.1]non-6-en-9-yl)prop-2-en-1-one trifluoroacetate] gave an IC50 of at least 1000 nM.
As to `C=CC(=O)N[C@@H]1CCCN(c2ccc3ncnc(Nc4cc(C)c(Oc5ccc6c(c5)nnn6C)cc4OC(F)F)c3n2)C1` [Compound 269, (R)-N-(1-(4-((2-(difluoromethoxy)-5-methyl-4-((1-methyl-1H-benzo[d][1,2,3]triazol-5-yl)oxy)phenyl)amino)pyrido[3,2-d]pyrimidin-6-yl)piperidin-3-yl)acrylamide], the IC50 is at least 1000 nM.
`C=CC(=O)N[C@H]1CN(c2ccc3ncnc(Nc4ccc(Oc5ccc6c(c5)nnn6C)c(C)c4)c3n2)C[C@H]1F` [Compound 277, N-((3S,4R)-4-fluoro-1-(4-((3-methyl-4-((1-methyl-1H-benzo[d][1,2,3]triazol-5-yl)oxy)phenyl)amino)pyrido[3,2-d]pyrimidin-6-yl)pyrrolidin-3-yl)acrylamide] had an IC50 of 100 to 500 nM.
Turning to `C=CC(=O)N[C@H]1CN(c2ccc3ncnc(Nc4ccc(Oc5ccc6c(c5)nnn6C)c(C)c4F)c3n2)CC[C@@H]1C` (single isomer, unassigned) [Compound 346], the IC50 fell in the range of 100 to 500 nM.
The figure for `C=CC(=O)N1CCN(c2ncc3ncnc(Nc4ccc(Oc5cc6nnn(C)c6cc5F)c(C)c4)c3n2)CC1` [Compound 190, 1-(4-(8-((4-((6-fluoro-1-methyl-1H-benzo[d][1,2,3]triazol-5-yl)oxy)-3-methylphenyl)amino)pyrimido[5,4-d]pyrimidin-2-yl)piperazin-1-yl)prop-2-en-1-one] is 100 to 500 nM; for `C=CC(=O)N1CCN(c2ncc3ncnc(Nc4ccc(Oc5ccc6c(c5)nnn6C)cc4Cl)c3n2)CC1` [Compound 29, 1-(4-(8-((2-chloro-4-((1-methyl-1H-benzo[d][1,2,3]triazol-5-yl)oxy)phenyl)amino)pyrimido[5,4-d]pyrimidin-2-yl)piperazin-1-yl)prop-2-en-1-one] it is at least 1000 nM.
Take `C=CC(=O)N1CCN(c2ncc3ncnc(Nc4ccc(Oc5cc6nnn(C)c6c(C)c5F)c(C)c4)c3n2)C[C@H]1C` [Compound 236, (R)-1-(4-(8-((4-((6-fluoro-1,7-dimethyl-1H-benzo[d][1,2,3]triazol-5-yl)oxy)-3-methylphenyl)amino)pyrimido[5,4-d]pyrimidin-2-yl)-2-methylpiperazin-1-yl)prop-2-en-1-one]: the IC50 lay in the range of 100 to 500 nM.
Turning to `C=CC(=O)N1CCN(c2nc3c(Nc4ccc(Oc5cc(F)c6c(c5)nnn6C)c(C)c4F)ncnc3cc2OC)CC1` [Compound 99, 1-(4-(4-((2-fluoro-4-((7-fluoro-1-methyl-1H-benzo[d][1,2,3]triazol-5-yl)oxy)-3-methylphenyl)amino)-7-methoxypyrido[3,2-d]pyrimidin-6-yl)piperazin-1-yl)prop-2-en-1-one], the IC50 was under 50 nM.
`C=CC(=O)N1CCN(c2ncc3ncnc(Nc4ccc(Oc5cc(F)c6c(c5)ncn6C)c(C)c4)c3n2)C[C@H]1CC` [Compound 163, (R)-1-(2-ethyl-4-(8-((4-((7-fluoro-1-methyl-1H-benzo[d]imidazol-5-yl)oxy)-3-methylphenyl)amino)pyrimido[5,4-d]pyrimidin-2-yl)piperazin-1-yl)prop-2-en-1-one] returned an IC50 of 100 to 500 nM.
In turn, `C=CC(=O)N1CCN(c2ncc3ncnc(Nc4ccc(Oc5cc(OC)c6c(c5)nnn6C)c(C)c4)c3n2)CC1` [Compound 113, 1-(4-(8-((4-((7-methoxy-1-methyl-1H-benzo[d][1,2,3]triazol-5-yl)oxy)-3-methylphenyl)amino)pyrimido[5,4-d]pyrimidin-2-yl)piperazin-1-yl)prop-2-en-1-one] came in with an IC50 of under 50 nM.
`C=CC(=O)N1CCC(Oc2nc3c(Nc4ccc(Oc5ccc6c(c5)ncn6C)c(C)c4F)ncnc3cc2OC)CC1` [Compound 394, 1-(4-((4-((2-fluoro-3-methyl-4-((1-methyl-1H-benzo[1d]imidazol-5-yl)oxy)phenyl)amino)-7-methoxypyrido[3,2-d]pyrimidin-6-yl)oxy)piperidin-1-yl)prop-2-en-1-one] showed an IC50 of under 50 nM.
For `C=C(COC)C(=O)NC1(C)CCN(c2ncc3ncnc(Nc4ccc(Oc5ccc6c(c5)nnn6C)c(C)c4)c3n2)CC1` [Compound 215, 2-(methoxy-methyl)-N-(4-methyl-1-(8-((3-methyl-4-((1-methyl-1H-benzo[d][1,2,3]triazol-5-yl)oxy)phenyl)amino)pyrimido [5,4-d]pyrimidin-2-yl)piperidin-4-yl)acrylamide], the IC50 was at least 1000 nM.
`C=CC(=O)N1CCC=C(c2ccc3ncnc(Nc4ccc(Oc5ccc6c(c5)nnn6C)c(C)c4)c3n2)C1` [Compound 407, 1-(5-(4-((3-methyl-4-((1-methyl-1H-benzo[d][1,2,3]triazol-5-yl)oxy)phenyl)amino)pyrido[3,2-d]pyrimidin-6-yl)-3,6-dihydropyridin-1(2H)-yl)prop-2-en-1-one]: the IC50 was under 50 nM.
The figure for `C=CC(=O)N1CCN(c2ncc3ncnc(Nc4ccc(Oc5ccc6c(c5)nnn6C)c(C)c4)c3n2)C[C@H]1C(C)C` [Compound 121, (R)-1-(2-isopropyl-4-(8-((3-methyl-4-((1-methyl-1H-benzo[d][1,2,3]triazol-5-yl)oxy)phenyl)amino)pyrimido[5,4-d]pyrimidin-2-yl)piperazin-1-yl)prop-2-en-1-one] is at least 1000 nM.
On to `C=CC(=O)N1CCN(c2ccc3ncnc(Nc4ccc(Oc5ccc6c(c5)nnn6C)c(C)c4)c3n2)C[C@@H]1COC` [Compound 78, (R)-1-(2-(methoxymethyl)-4-(4-((3-methyl-4-((1-methyl-1H-benzo[d][1,2,3]triazol-5-yl)oxy)phenyl)amino)pyrido[3,2-d]pyrimidin-6-yl)piperazin-1-yl)prop-2-en-1-one], for which the IC50 was 100 to 500 nM.
The compound `C=C(F)C(=O)N1C2C=C(c3ccc4ncnc(Nc5ccc(Oc6ccc7c(c6)nnn7C)c(C)c5)c4n3)CC1CC2` (stereo not drawn) [Compound 411, 2-fluoro-1-(3-(4-((3-methyl-4-((1-methyl-1H-benzo[d][1,2,3]triazol-5-yl)oxy)phenyl)amino)pyrido[3,2-d]pyrimidin-6-yl)-8-azabicyclo[3.2.1]oct-2-en-8-yl)prop-2-en-1-one trifluoroacetate] registered an IC50 of at least 1000 nM.
For the compound `C=CC(=O)N1CCN(c2ccc3ncnc(Nc4ccc(Oc5ccc6c(c5)nnn6C)c(C)c4)c3n2)C[C@@H]1CC#N` [Compound 83, (S)-2-(1-acryloyl-4-(4-((3-methyl-4-((1-methyl-1H-benzo[d][1,2,3]triazol-5-yl)oxy)phenyl)amino)pyrido[3,2-d]pyrimidin-6-yl)piperazin-2-yl)acetonitrile], the IC50 was under 50 nM.
In turn, `C=C(F)C(=O)N1CC[C@H](N(C)c2ccc3ncnc(Nc4ccc(Oc5ccc6c(c5)nnn6C)c(C)c4F)c3n2)C1` [Compound 365, (S)-2-fluoro-1-(3-((4-((2-fluoro-3-methyl-4-((1-methyl-1H-benzo[d][1,2,3]triazol-5-yl)oxy)phenyl)amino)pyrido[3,2-d]pyrimidin-6-yl)(methyl)amino)pyrrolidin-1-yl)prop-2-en-1-one] gave an IC50 of at least 1000 nM.
As to `C=CC(=O)N1CCN(c2ncc3ncnc(Nc4ccc(Oc5cc(C)c6c(c5)nnn6C)c(C)c4)c3n2)CC1` [Compound 130, 1-(4-(8-((4-((1,7-dimethyl-1H-benzo[d][1,2,3]triazol-5-yl)oxy)-3-methylphenyl)amino)pyrimido[5,4-d]pyrimidin-2-yl)piperazin-1-yl)prop-2-en-1-one], the IC50 was under 50 nM.
With `C=CC(=O)N1CCN(c2ncc3ncnc(Nc4ccc(Oc5cc(F)c6c(c5)nnn6C)c(C)c4F)c3n2)C[C@H]1C1CC1` [Compound 197, (R)-1-(2-cyclopropyl-4-(8-((2-fluoro-4-((7-fluoro-1-methyl-1H-benzo[d][1,2,3]triazol-5-yl)oxy)-3-methylphenyl)amino)pyrimido[5,4-d]pyrimidin-2-yl)piperazin-1-yl)prop-2-en-1-one], the IC50 is 100 to 500 nM.
